In PubChem BioAssay AID1845208 (Molecular Pharmacology Branch, DTP, NCI, 2023):

Tested on: NCI-H196 SCLC complex tumor spheroid viability
Assay: Anticancer human tumor NCI-H196 cell line growth inhibition;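 also: spheroids exposed to compounds for 7 days before readout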;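 as to viability, T/C: 100% = DMSO vehicle control wells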
Conditions: for IC50: curve of first compound; for viability, T/C: stronger effect = lower value
Description: Multicellular complex tumor spheroid response to DNA repair inhibitors in combination with DNA-damaging drugs
This study explores the anticancer activities of DNA-damaging drugs and inhibitors of DNA damage repair, both as single agents and in combinations. Complex tumor spheroids comprised of malignant cells, endothelial cells and mesenchymal stem cells served as an in vitro model for human solid tumors. This model system incorporates physiologically relevant features and patient-derived or established malignant cell lines with clinically relevant genetic alterations from many tumor types. Twenty-six patient-derived or established malignant cell lines were evaluated representing sarcoma, melanoma, small cell lung cancer (SCLC), non-small cell lung cancer (NSCLC), as well as bladder, ovarian and pancreatic cancers. The concentration ranges selected for each drug and investigational agent were based upon clinically achievable concentrations if the clinical Cmax of the agent was known.
Compounds. The drugs and compounds olaparib (NSC753686), talazoparib (NSC767125), berzosertib (NSC777718), elimusertib (NSC800525), nedisertib (NSC802822), VX-984 (NSC792969), AZD-1390 (NSC803789), temozolomide (NSC362856), topotecan (NSC609699), trabectedin (NSC813783), staurosporine (NSC755774), and gemcitabine (NSC613327) were obtained from the National Cancer Institute (NCI) Developmental Therapeutics Program Chemical Repository. The FDA-approved anticancer drug set is available from the Developmental Therapeutics Program at https://dtp.cancer.gov/organization/dscb/obtaining/available_plates.htm. […] The stock solutions were prepared in dimethyl sulfoxide (DMSO, Sigma-Aldrich, St. Louis, MO, cat. D2650) at 400-fold the tested concentration and stored at -70 degrees C. Prior to their use, the stock solutions were diluted in fresh medium and the final DMSO concentration in the assay was 0.25% (v/v). All drugs and investigational agents were tested over a range starting from a high concentration at or near the clinical Cmax and decreasing in half-log increments. If the clinical Cmax for an agent had not been determined, the highest concentration tested was 10 microM.
Cell Lines. The patient-derived cancer cell (PDC) lines: 156681-154-R-J1-PDC, 283228-195-R-J1-PDC, 287954-098-R-J1-PDC, 292921-168-R-J2-PDC, 349418-098-R-PDC, 425362-245-T-J1-PDC, 556581-035-R-J1-PDC, and BL0293-F563-PDC were received from the NCI Patient-Derived Models Repository (PDMR, https://pdmr.cancer.gov). The established cell lines HS-SY-2 (RRID:CVCL_8719), MPNST, and SYO-1 (RRID:CVCL_7146) were obtained from the Sloan Kettering Institute. The alveolar soft parts sarcoma cell line ASPS-1 (RRID:CVCL_S738) was established at the NCI and grown from internal seed stocks. The following established cell lines were purchased from the American Type Culture Collection (ATCC, Manassas, VA): G-401 (ATCC, cat. CRL-1441, RRID:CVCL_0270), SW982 (ATCC, cat. HTB-93, RRID:CVCL_1734), VA-ES-BJ (ATCC, cat. CRL-2138, RRID:CVCL_1785), NCI-H719 (ATCC, cat. CRL-5837, RRID:CVCL_1582), NCI-H196 (ATCC, cat. CRL-5823, RRID:CVCL_1509), NCI-H841 (ATCC, cat. CRL-5845, RRID:CVCL_1595), NCI-H1618 (ATCC, cat. CRL-5879, RRID:CVCL_1480), NCI-H1876 (ATCC, cat. CRL-5902, RRID:CVCL_1503), DMS 114 (ATCC, cat. CRL-2066; RRID:CVCL_1174), NCI-H211 (ATCC, cat. CRL-5824; RRID:CVCL_1529), and SW 1271 (ATCC, cat. CRL-2177, RRID:CVCL_1716). The small cell lung cancer cell line COR-L88 was purchased from Sigma-Aldrich (cat. 92031917-1VL, RRID:CVCL_1141). The non-small cell lung cancer cell lines NCI-H226 (RRID:CVCL_1544) and NCI-H322M (RRID:CVCL_1557) were established at the NCI and grown from internal seed stocks. Pooled donor human umbilical vein endothelial cells (HUVEC, Lonza, cat. CC-2519) and human mesenchymal stem cells (hMSC, Lonza, cat. PT-2501) were purchased from Lonza (Walkersville, MD).
Cell Culture. All cells were maintained in an incubator at 37 degrees C and 5% CO2 with 95% humidity. […]

[1] = second compound 0.003 µM, first compound 0.0949 µM
[2] = second compound 0.003 µM, first compound 0.3 µM
[3] = second compound 0.003 µM, first compound 0.949 µM
[4] = second compound 0.003 µM, first compound 3 µM
[5] = second compound 0.00949 µM, first compound 0.0949 µM
[6] = second compound 0.00949 µM, first compound 0.3 µM
[7] = second compound 0.00949 µM, first compound 0.949 µM
[8] = second compound 0.00949 µM, first compound 3 µM
[9] = second compound 0.03 µM, first compound 0.0949 µM
[10] = second compound 0.03 µM, first compound 0.3 µM
[11] = second compound 0.03 µM, first compound 0.949 µM
[12] = second compound 0.03 µM, first compound 3 µM
[13] = second compound 0.0949 µM, first compound 0.0949 µM
[14] = second compound 0.0949 µM, first compound 0.3 µM
[15] = second compound 0.0949 µM, first compound 0.949 µM
[16] = second compound 0.0949 µM, first compound 3 µM
[17] = second compound 0.3 µM, first compound 0.0949 µM
[18] = second compound 0.3 µM, first compound 0.3 µM
[19] = second compound 0.3 µM, first compound 0.949 µM
[20] = second compound 0.3 µM, first compound 3 µM

SMILES | IC50 (second compound 0.003 µM) [µM] | IC50 (second compound 0.00949 µM) [µM] | IC50 (second compound 0.03 µM) [µM] | IC50 (second compound 0.0949 µM) [µM] | IC50 (second compound 0.3 µM) [µM] | viability, T/C [1] [%] | viability, T/C [2] [%] | viability, T/C [3] [%] | viability, T/C [4] [%] | viability, T/C [5] [%] | viability, T/C [6] [%] | viability, T/C [7] [%] | viability, T/C [8] [%] | viability, T/C [9] [%] | viability, T/C [10] [%] | viability, T/C [11] [%] | viability, T/C [12] [%] | viability, T/C [13] [%] | viability, T/C [14] [%] | viability, T/C [15] [%] | other results
Cn1ncnc1[C@H]1c2n[nH]c(=O)c3cc(F)cc(c23)N[C@@H]1c1ccc(F)cc1 + CC[C@@]1(O)C(=O)OCc2c1cc1n(c2=O)Cc2cc3c(CN(C)C)c(O)ccc3nc2-1 | > 3 | > 3 | > 3 | > 3 | > 3 | 96.9 | 95.3 | 95 | 98.2 | 95.5 | 105 | 104 | 102 | 113 | 108 | 104 | 97.4 | 105 | 110 | 106 | viability, T/C (second compound 0.003 µM, first compound 0.00949 µM): 97.6%; viability, T/C (second compound 0.003 µM, first compound 0.03 µM): 90.2%; viability, T/C (second compound 0.00949 µM, first compound 0.00949 µM): 96.5%; viability, T/C (second compound 0.00949 µM, first compound 0.03 µM): 87.7%; viability, T/C (second compound 0.03 µM, first compound 0.00949 µM): 104%; viability, T/C (second compound 0.03 µM, first compound 0.03 µM): 110%; viability, T/C (second compound 0.0949 µM, first compound 0.00949 µM): 108%; viability, T/C (second compound 0.0949 µM, first compound 0.03 µM): 108%; viability, T/C [16]: 96.8%; viability, T/C (second compound 0.3 µM, first compound 0.00949 µM): 99.1%; viability, T/C (second compound 0.3 µM, first compound 0.03 µM): 99.9%; viability, T/C [17]: 91%; viability, T/C [18]: 95.3%; viability, T/C [19]: 91.2%; viability, T/C [20]: 82.5%
O=C(c1cc(Cc2n[nH]c(=O)c3ccccc23)ccc1F)N1CCN(C(=O)C2CC2)CC1 + CC[C@@]1(O)C(=O)OCc2c1cc1n(c2=O)Cc2cc3c(CN(C)C)c(O)ccc3nc2-1 | > 30 | > 30 | > 30 | > 30 | > 30 | 95.4 | 95.2 | 88.3 | 88.2 | 97.7 | 91.3 | 98.7 | 95.9 | 100 | 98 | 101 | 103 | 96.3 | 107 | 99.6 | viability, T/C (second compound 0.003 µM, first compound 9.49 µM): 88.6%; viability, T/C (second compound 0.003 µM, first compound 30 µM): 85.6%; viability, T/C (second compound 0.00949 µM, first compound 9.49 µM): 94.3%; viability, T/C (second compound 0.00949 µM, first compound 30 µM): 96.6%; viability, T/C (second compound 0.03 µM, first compound 9.49 µM): 98.2%; viability, T/C (second compound 0.03 µM, first compound 30 µM): 92%; viability, T/C [16]: 99.6%; viability, T/C (second compound 0.0949 µM, first compound 9.49 µM): 102%; viability, T/C (second compound 0.0949 µM, first compound 30 µM): 97.2%; viability, T/C [17]: 86.8%; viability, T/C [18]: 90.9%; viability, T/C [19]: 88.4%; viability, T/C [20]: 93.9%; viability, T/C (second compound 0.3 µM, first compound 9.49 µM): 82.5%; viability, T/C (second compound 0.3 µM, first compound 30 µM): 83.1%
